Laboratory results reported in patent US20170354592A1 (ASCENDIA PHARMACEUTICALS, LLC, priority 2016, published 2017).

Assays:
[1] = Single IV injection of carvedilol liposomes and free-carvedilol solution, plasma PK; conditions: rats, single iv 2.5 mg/kg
Method: (§1) 15 cannulated and non-cannulated, 9 and 6 rats respectively, Sprague-Dawley® male rats were divided into 3 groups. […] Treatment was administered intravenously. During the experiment, rats were inspected twice daily for vitality and as needed after dosing and intermittently and vitals, including blood pressure, heart rate, and temperature, were recorded from the non-cannulated animals. Main vital signs were monitored prior to and at multiple time points after dose administration. Blood pressure and heart rate were measured using a non-invasive tail cuff system after a brief acclimation period. Blood samples (approximately 300-325 μL each) were collected from cannulated rats at each time point into tubes containing K2EDTA.
(§2) Following centrifugation at 4° C., the plasma was collected and stored at −80° C. The blood sampling time points were as follows: prior to (PRE) and approximately 0.25, 0.5, 1, 2, 3, 8, 10 and 24 hours after dose administration. Samples were collected via Jugular Vein Cannulas.

[2] = Vital signs and adverse reactions after IV dose (non-invasive tail cuff); conditions: rats iv 2.5 mg/kg
Method: as §1, §2

[3] = cited from earlier work
[4] = tested on: β-adrenoceptor; conditions: cited from earlier work; for potency as a β-adrenoceptor antagonist versus Carvedilol: relative to carvedilol, Hoffman (2001), Tenero et al (2000)

Question: With “(±)-[3-(9H-carbazol-4-yloxy)-2-hydroxypropyl][2-(2-ethoxyphenoxy)ethyl] amine [Carvedilol]” as the molecule, how does the “time after dose at which carvedilol was cleared from plasma” value ([1]; FIG. 3) read?
Answer: 3 h

Question: And the “AUC(0-T)” value ([1]; mean)?
Answer: 284 ng·h/mL

Question: What about the “AUC(INF)” value ([1]; mean) of the same molecule?
Answer: 291 ng·h/mL

Question: What about the CL ([1]; mean) of the same molecule?
Answer: 144.0 mL/min/kg

Question: And the Cmax ([1]; mean)?
Answer: 354 ng/mL

Question: What about the T-HALF ([1]; mean) of the same molecule?
Answer: 0.52 h

Question: And the Tmax ([1]; mean)?
Answer: 15 min

Question: What about the Vss ([1]; mean) of the same molecule?
Answer: 6.4 L/kg

Question: And the Diastolic ([2]; 1 Hour after dose)?
Answer: 40

Question: What about the HR ([2]; 1 Hour after dose) of the same molecule?
Answer: 363 Beats/min

Question: What about the MAP ([2]; 1 Hour after dose) of the same molecule?
Answer: 69

Question: And the Temp ([2]; 1 Hour after dose)?
Answer: 99 ° F.

Question: What about the Diastolic ([2]; 15 min after dose) of the same molecule?
Answer: 48

Question: And the HR ([2]; 15 min after dose)?
Answer: 354 Beats/min

Question: What about the MAP ([2]; 15 min after dose) of the same molecule?
Answer: 73

Question: And the Temp ([2]; 15 min after dose)?
Answer: 98 ° F.

Question: And the Diastolic ([2]; 30 min after dose)?
Answer: 33

Question: What about the HR ([2]; 30 min after dose) of the same molecule?
Answer: 360 Beats/min

Question: And the MAP ([2]; 30 min after dose)?
Answer: 60

Question: And the Temp ([2]; 30 min after dose)?
Answer: 99 ° F.

Question: And the pKa [3]?
Answer: 7.8

Question: For `COc1cc(O)ccc1OCCNCC(O)COc1cccc2[nH]c3ccccc3c12` (stereo not shown) [4-hydroxyphenyl-carvedilol], which “potency in β-blockade versus the parent compound” value ([4]; more potent than carvedilol) is on record?
Answer: about 13 fold

Question: What about the “potency as a β-adrenoceptor antagonist versus Carvedilol” value [4] of the same molecule?
Answer: about 13 times

Question: Which “potency as a β-adrenoceptor antagonist versus Carvedilol” value [4] does the source give for `COc1ccc(O)cc1OCCNCC(O)COc1cccc2[nH]c3ccccc3c12` (stereo not shown) [5-hydroxyphenyl-carvedilol] here?
Answer: one-half

Question: Which “potency as a β-adrenoceptor antagonist versus Carvedilol” value [4] does the source give for `Oc1ccccc1OCCNCC(O)COc1cccc2[nH]c3ccccc3c12` (stereo not shown) [desmethylcarvedilol] here?
Answer: approximately 2.5 times
